This is an account of results in patent US6207397A, “In vitro fluorescence polarization assay” (ARIAD Pharmaceuticals, Inc., priority 1997, dated 2001).

Where two headings read alike, the source gives them in different places. Square brackets hold non-standard residues; d marks the D form. Peptide text beside a SMILES is read from it. * marks the point of attachment. 5FAM = O=C1OC2(c3ccc(O)cc3Oc3cc(O)ccc32)c2ccc(C(=O)*)cc21; pY = N[C@@H](Cc1ccc(OP(=O)(O)O)cc1)C(=O)O

One series concerns the target Src SH2-SH3 (Homo sapiens, UniProt P12931). In words: Fluorescence polarization saturation experiment, Src SH2-SH3 double binding assay. The following applies: saturation with Src-SH2-SH3; SH2-SH3 probe. An excerpt: Proteins such as Src contain both an SH2 and an SH3 domain. Certain proteins can bind to such SH2- SH3 proteins not through SH2 or SH3 domains alone, but through both domains at once. One example is the protein, p130CAS, which is thought to bind Src via both SH2 and SH3 domains. The SH3 and SH2 binding sequences of p130CAS have been identified by deletional and site-specific mutagenesis (Nakamoto et. al., JBC 271, 8959-8965, 1996). […] Fluorescent probes for FP assays were designed based on these sequences. Such probes can be used in assays that allow simultaneous screening for both SH2-specific and SH3-specific inhibitors. One such probe ("FPC130") is the following:
This is the native sequence from p130CAS (733-767). Derivative probes based on the foregoing but using different component SH2 and/or SH3 sequences may be used to vary the affinity or protein specificity, and especially to increase the overall affinity of probe for the desired target protein.

Series [1] addresses T1, Src-SH2 (Homo sapiens, UniProt P12931).
T1 construct: Human Src encoding residues 145-251; made in house; host or cells: E. coli BL21 (DE3), pT7 expression vector
In words: Fluorescence polarization Src-SH2 competition assay with peptides. The format is binding. The following applies: for IC50: TABLE 1, fixed probe and Src-SH2, increasing peptide, read-out: Peptide competitive IC50. The protocol:
(§1) All polarization methods were performed on an FPM2 96-well plate reader (Jolley), with standard cutoff filters (excitation=485 nm; emission=530 nm). Saturation experiments were used to explore various conditions for the assay, with the aim of maximizing the protein and assay stability, and of determining Kd s of the protein/probe interaction.
For competition experiments, fixed concentrations of probe and protein were used, and increasing concentrations of peptides were added.
All buffer components were low-fluorescence grade (Panvera Corporation). Standard (STD) buffer contains 20 mM phosphate (pH 7.4), 100 mM NaCl, 2 mM DTT, 1 mM EDTA, and 100 ug/ml BGG. Standard buffer is prepared by preparing NaCl, EDTA and phosphate stocks in Millipore water or the cleanest available water supply. The buffer is brought to volume in the same clean water.
The SRC protein is used at a concentration of 0.75 uM final. An example of SRC stock solution is 416.6 uM in STD buffer. […] It is desirable to make a 2× stock of this. For assays where the tighter-binding pYpYpYIE probe is used, the Src protein concentration can be reduced to 150 nM. In general, the concentration of the protein can be adjusted to match the affinity of the probe.
Fluor-GpYEEI is used as the probe at a concentration of 20 nM final. The probe stock sent is 10 uM in STD buffer.
(In fluorescence polarisation assays a small probe gives low polarisation when free and higher when bound to something large.)

The target in series [2] is T1, Src-SH2. In words: Fluorescence polarization saturation experiment with Src-SH2 using an alternate (BODIPY-TRX) probe. The format is binding. As to conditions: filters 591/635. An excerpt:
A competition assay was developed for Src-SH2 (applicable to any fragment of Src containing the SH2 domain) with a non-fluorescein fluorophore. The fluorophore is one of a family of fluorescent molecules containing the core fluorophore, 4,4-difluoro-4 bora-3a,4a-diaza-s-indacene (commerciallyavailable from Molecular Probes Inc.). The structure of the fluorophore-peptide probe is: [drawing 2]
Specifically, the excitation/emission filters used with the above are 591/635, compared to 485/530 for fluorescein.
(§2) Synthesis of the peptide portion of the probe was as described in Example 1, with production of the peptide NH2-pYEEI. The probe was further synthesized by coupling the free amine peptide, NH2-pYEEI, with the succinimidyl ester of the BODIPY-TRX probe in a 66% DMSO buffer (34% 0.1 MNaBicarbonate). Completion of reaction was monitored by silica gel TLC (4:1:1, butanol, H2O , Acetic Acid solvent system), and was done by 24 hrs.
The only difference was the use of an alternate set of filters for the red probe, as described in A above.

Series [3] can be described thus: Hydrophobicity of the BODIPY-TRX peptide probe. As to conditions: resultant peptide. The format is physicochemical.
Excerpt: as §2

The target of another series is T2, Src-SH2 domain (Homo sapiens, UniProt P12931).
T2 construct: Human Src encoding residues 145-251; made in house; host or cells: E. coli BL21 (DE3), pT7 expression vector
In words: Fluorescence polarization saturation experiment of probe FMT1 with Src-SH2. The format is binding. The protocol: Human Src encoding residues 145-251 [Tanaka, A. and Fujita, D. J., Mol. Cell. Biol. 6:3900-3909 (1986)] was cloned into the pT7 expression vector and transformed into E. coli BL21 (DE3). Protein was produced from the growth and induction of 27 liters of culture in minimal medium. In a typical preparation, the culture was grown at 37° C. to an optical density (OD) of 1.0 at 595 nm. The culture was induced with 1 mM isopropyl--D-thiogalactopyranoside (IPTG) and the temperature was dropped to 25° C. The culture was harvested 21 hours later.
as §1
For saturation experiments, fixed concentrations of probe were used, and increasing concentrations of Src-SH2 were added. This is the reverse of the way such assays are commonly done with radioactive ligands.
A saturation experiment was conducted in which the Src-SH2 domain is varied in concentration from a high of 40 uM to a low of 39 nM. The fluorescent probe FMT1 (FIG. 1) was kept at a fixed concentration of 20 nM. Amino acid analysis was used to quantitate both the protein and probe concentrations. The results are illustrated in the saturation curve and Scatchard analysis of FIGS. 2A and 2B, respectively from this experiment.

The target in another series is T3, Src SH3 (Homo sapiens, UniProt P12931).
T3 construct: SH3-specific probe
In words: Fluorescence polarization saturation experiment, Src SH3 binding assay with Src-SH2-SH3 protein. As to conditions: SH3 probe. An excerpt:
Biol. 7(5): 1978-1983 (1987)], and a probe specific for the Src SH3 domain (in place of the Src-specific SH2 probe). Note that larger or smaller Src proteins may be used, so long as they include the Src SH3 domain (with or without the Src SH2 domain). Production and purification of the protein were essentially as described above, e.g., see Example 3. The following details are provided:
The following Src SH3 specific probe ("FPSH3") was synthesized using the techniques described in Example 1: […]

In the next series the target is GRB2 SH2 (Homo sapiens, UniProt P62993). The following applies: saturation with GRB2 SH2 protein. The method, then: The human GRB2 protein tested in the assay comprised amino acid residues 55-152 of huGRB2 [see Cell 70: 431-442 (1992)], although longer sequences encompassing the SH2 domain may also be used. Production and purification of the protein domain was similar to methods described above, especially the use of a phosphotyrosine column to purify the GRB2 SH2domain.
Sequence of GRB2 SH2 (P62993 55-152): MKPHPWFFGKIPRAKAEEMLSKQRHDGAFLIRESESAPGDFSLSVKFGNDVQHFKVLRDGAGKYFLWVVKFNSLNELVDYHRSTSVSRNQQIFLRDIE
As in previous examples, saturation experiments were performed with fixed concentrations of probe and increasing concentrations of Grb-2-SH2.
The following Grb-2-specific SH2 probe ("FPgb2") was synthesized using the techniques described in Example 1 [drawing 1] 2, Fluor-GpYVNV-NH2

With “Fluor-RPLPSPPKFTSQDSPDGQYENSEGGWMEDpYDYVHL [FPC130]”, the “Kd and total mP difference on protein binding” value (from here on “Kd and total mP difference”) with Src SH2-SH3 was “appropriate Kd and total mP difference on protein binding”.

Consider Ac-pYTGL, for which, at Src-SH2 [1], the IC50 (commonly the concentration that gives 50% inhibition) amounted to 100000 nM. For `CC[C@H](C)[C@H](NC(=O)[C@H](Cc1ccc(OP(=O)(O)O)cc1)NC(=O)[C@H](Cc1ccc(OP(=O)(O)O)cc1)NC(=O)[C@H](Cc1ccc(OP(=O)(O)O)cc1)NC(=O)c1ccc2c(c1)C(=O)OC21c2ccc(O)cc2Oc2cc(O)ccc21)C(=O)N[C@@H](CCC(=O)O)C(N)=O` [pYpYpYIE probe, fluorescein-pYpYpYIE-NH2] (5FAM-[pY][pY][pY]IE-NH2), the “Relative binding of probe to Src” value at Src-SH2 [1] (probe allowing Src protein reduced to 150 nM) is “tighter-binding”. Turning to `CC[C@H](C)[C@H](NC(=O)[C@H](CCC(=O)O)NC(=O)[C@H](CCC(=O)O)NC(=O)[C@H](Cc1ccc(OP(=O)(O)O)cc1)NC(=O)CCCCCNC(=O)CC1=C(C)C2=Cc3ccc(-c4ccc(OC)cc4)n3[B-](F)(F)[N+]2=C1C)C(N)=O` [BODIPY-TRX probe], on Src-SH2 [2], the “Kd and total mP difference” value is “adequate Kd and total mP difference on protein binding”. In addition, the Hydrophobicity entry in series [3] is “quite hydrophobic”. Turning to `CC[C@H](C)[C@H](NC(=O)[C@H](CCC(=O)O)NC(=O)[C@H](CCC(=O)O)NC(=O)[C@H](Cc1ccc(OP(=O)(O)O)cc1)NC(=O)CNC(=O)c1ccc2c(c1)C(=O)OC21c2ccc(O)cc2Oc2cc(O)ccc21)C(N)=O` [FMT1, fluorescein-G-pYEEI-NH2] (5FAM-G[pY]EEI-NH2), the Kd on Src-SH2 domain (FIG. 2A, error of 0.008, FMT1 fixed at 20 nM, Src-SH2 39 nM to 40 uM, read-out: Calculated Kd (non-linear least squares fit of saturation experiment)) was 240 nM; on Src-SH2 domain (FIG. 2B, R value 0.992 for the linear fit, read-out: Calculated Kd (Scatchard analysis)) it was 260 nM; at Src-SH2 domain (standard buffer conditions, read-out: Kd towards Src-SH2), around 300 nM. Also, on Src-SH2 domain (FIGS. 2A and 2B), the “Binding mode in saturation experiment” value is listed as “saturable binding to a single site is observed”.

In the case of `CC(C)C[C@H](NC(=O)[C@@H]1CCCN1C(=O)c1ccc2c(c1)C(=O)OC21c2ccc(O)cc2Oc2cc(O)ccc21)C(=O)N[C@@H](C)C(=O)N[C@@H](CCCNC(=N)N)C(=O)N[C@@H](CCCNC(=N)N)C(=O)N1CCC[C@H]1C(=O)N[C@@H](CC(C)C)C(=O)N1CCC[C@H]1C(=O)N1CCC[C@H]1C(=O)N[C@@H](CC(C)C)C(=O)N1CCC[C@H]1C(N)=O` [FPSH3] (5FAM-PLARRPLPPLP-NH2), the “Kd and total mP difference” value at Src SH3 was “appropriate Kd and total mP difference on protein binding”. For the compound Ac-pYpYpYIE, the half-inhibitory concentration (IC50) at Src-SH2 [1] came out at 500 nM. Turning to `CC(C)[C@H](NC(=O)[C@H](CC(N)=O)NC(=O)[C@@H](NC(=O)[C@H](Cc1ccc(OP(=O)(O)O)cc1)NC(=O)CNC(=O)c1ccc2c(c1)C(=O)OC21c2ccc(O)cc2Oc2cc(O)ccc21)C(C)C)C(N)=O` [FPgb2, Fluor-GpYVNV-NH2] (5FAM-G[pY]VNV-NH2), the “Kd and total mP difference” value at GRB2 SH2 was “appropriate Kd and total mP difference on protein binding”. With Ac-pYGGL, the IC50 on Src-SH2 [1] came to 700000 nM. For Ac-pYpYEEI, the IC50 on Src-SH2 [1] was determined as 1500 nM.
